Where a name gives a salt, the structure may show the parent alone.
Biological target: T1, SIRT1 (Homo sapiens, UniProt Q96EB6)
T1 sequence (Q96EB6 1-747): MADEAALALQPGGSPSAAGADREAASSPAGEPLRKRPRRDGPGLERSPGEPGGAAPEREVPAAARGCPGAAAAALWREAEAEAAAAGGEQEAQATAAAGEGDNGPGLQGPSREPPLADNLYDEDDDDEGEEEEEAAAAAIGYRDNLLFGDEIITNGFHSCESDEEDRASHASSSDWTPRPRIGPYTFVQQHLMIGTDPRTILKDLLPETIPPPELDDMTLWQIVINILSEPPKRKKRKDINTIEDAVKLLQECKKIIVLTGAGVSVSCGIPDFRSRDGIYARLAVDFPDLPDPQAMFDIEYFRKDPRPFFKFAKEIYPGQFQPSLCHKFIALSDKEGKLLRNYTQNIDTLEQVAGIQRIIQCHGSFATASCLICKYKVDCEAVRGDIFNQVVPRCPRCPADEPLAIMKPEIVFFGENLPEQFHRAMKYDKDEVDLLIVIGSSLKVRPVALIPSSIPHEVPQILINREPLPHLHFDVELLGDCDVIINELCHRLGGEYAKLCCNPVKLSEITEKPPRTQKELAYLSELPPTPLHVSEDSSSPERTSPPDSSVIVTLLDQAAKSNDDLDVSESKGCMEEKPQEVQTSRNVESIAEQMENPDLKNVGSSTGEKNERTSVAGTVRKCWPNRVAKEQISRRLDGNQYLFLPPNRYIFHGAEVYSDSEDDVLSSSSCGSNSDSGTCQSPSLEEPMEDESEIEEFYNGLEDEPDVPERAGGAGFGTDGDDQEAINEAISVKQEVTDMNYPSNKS
Test: Mass spectrometry based SIRT1 deacetylase activation assay (acetylated p53-derived peptide substrate)
Assay type: biochemical
Text: A mass spectrometry based assay was used to identify modulators of SIRT1 activity. The mass spectrometry based assay utilizes a peptide having 20 amino acid residues as follows: Ac-EE-K(biotin)-GQSTSSHSK(Ac)NleSTEG-K(5TMR)-EE-NH2 (SEQ ID NO: 1) wherein K(Ac) is an acetylated lysine residue and Nle is a norleucine. The peptide is labeled with the fluorophore 5TMR (excitation 540 nm/emission 580 nm) at the C-terminus. The sequence of the peptide substrate is based on p53 with several modifications. In addition, the methionine residue naturally present in the sequence was replaced with the norleucine because the methionine may be susceptible to oxidation during synthesis and purification.
The mass spectrometry assay is conducted as follows: 0.5 μM peptide substrate and 120 μM βNAD^+ is incubated with 10 nM SIRT1 for 25 minutes at 25° C. in a reaction buffer (50 mM Tris-acetate pH 8, 137 mM NaCl, 2.7 mM KCl, 1 mM MgCl2, 5 mM DTT, 0.05% BSA). Test compounds may be added to the reaction as described above. […] After the 25 minute incubation with SIRT1, 10 μL of 10% formic acid is added to stop the reaction. Reactions are sealed and frozen for later mass spec analysis. Determination of the mass of the substrate peptide allows for precise determination of the degree of acetylation (i.e. starting material) as compared to deacetylated peptide (product).
A control for inhibition of sirtuin activity is conducted by adding 1 μL of 500 mM nicotinamide as a negative control at the start of the reaction (e.g., permits determination of maximum sirtuin inhibition). A control for activation of sirtuin activity is conducted using 10 nM of sirtuin protein, with 1 μL of DMSO in place of compound, to determine the amount of deacetylation of the substrate at a given timepoint within the linear range of the assay. This timepoint is the same as that used for test compounds and, within the linear range, the endpoint represents a change in velocity.
For the above assay, SIRT1 protein was expressed and purified as follows. […] The protein was expressed by induction with 1 mM IPTG as an N-terminal His-tag fusion protein at 18° C. overnight and harvested at 30,000×g. Cells were lysed with lysozyme in lysis buffer (50 mM Tris-HCl, 2 mM Tris[2-carboxyethyl]phosphine (TCEP), 10 μM ZnCl2, 200 mM NaCl) and further treated with sonication for 10 min for complete lysis. The protein was purified over a Ni-NTA column (Amersham) and fractions containing pure protein were pooled, concentrated and run over a sizing column (Sephadex S200 26/60 global). The peak containing soluble protein was collected and run on an Ion-exchange column (MonoQ). Gradient elution (200 mM-500 mM NaCl) yielded pure protein. This protein was concentrated and dialyzed against dialysis buffer (20 mM Tris-HCl, 2 mM TCEP) overnight. The protein was aliquoted and frozen at −80° C. until further use.
Sirtuin modulating compounds that activated SIRT1 were identified using the assay described above and are shown below in Table 1. The EC1.5 values for the activating compounds are represented by A (EC1.5<1.0 uM), B (EC1.5 1-25 uM), C (EC1.5 >25 uM). The percent maximum fold activation is represented by A (Fold activation >200%) or B (Fold Activation <200%).

| EC1.5 | Fold Act. (percent maximum fold activation) | Structure (SMILES) |
| --- | --- | --- |
| B (EC1.5 1-25 uM) | A (Fold activation >200%) | O=C(Nc1nccs1)c1cccc2[nH]c(-c3ccc(F)c(Cl)c3)nc12 [Compound 235] |
| B (EC1.5 1-25 uM) | B (Fold Activation <200%) | O=C(Nc1nccs1)c1cccc2[nH]c(-c3cccc(N4CCCC4)c3)nc12 [Compound 236] |
| B (EC1.5 1-25 uM) | B (Fold Activation <200%) | O=C(Nc1nccs1)c1cccc2[nH]c(-c3ccncc3)nc12 [Compound 237] |
| B (EC1.5 1-25 uM) | B (Fold Activation <200%) | O=C(Nc1nccs1)c1cccc2[nH]c(-c3nccs3)nc12 [Compound 238] |
| C (EC1.5 >25 uM) | B (Fold Activation <200%) | O=C(Nc1nncs1)c1cccc2[nH]c(-c3cccc(C(F)(F)F)c3)nc12 [Compound 239] |
| C (EC1.5 >25 uM) | B (Fold Activation <200%) | CC(C)(C)c1nnc(NC(=O)c2cccc3[nH]c(-c4cccc(C(F)(F)F)c4)nc23)s1 [Compound 240] |
| C (EC1.5 >25 uM) | B (Fold Activation <200%) | O=C(Nc1ncccn1)c1cccc2[nH]c(-c3cccc(C(F)(F)F)c3)nc12 [Compound 241] |
| B (EC1.5 1-25 uM) | B (Fold Activation <200%) | O=C(Nc1ccncc1)c1cccc2[nH]c(-c3cccc(C(F)(F)F)c3)nc12 [Compound 242] |
| A (EC1.5<1.0 uM) | A (Fold activation >200%) | O=C(Nc1cccnc1)c1cccc2[nH]c(-c3ccccc3C(F)(F)F)nc12 [Compound 243] |
| B (EC1.5 1-25 uM) | A (Fold activation >200%) | Cc1nc(-c2nc3c(C(=O)Nc4nccs4)cccc3[nH]2)c(C)o1 [Compound 244] |
| B (EC1.5 1-25 uM) | A (Fold activation >200%) | O=C(Nc1nccs1)c1cccc2[nH]c(-c3cccnc3Cl)nc12 [Compound 245] |
| B (EC1.5 1-25 uM) | B (Fold Activation <200%) | O=C(Nc1nccs1)c1cccc2[nH]c(-c3ccc(Cl)nc3)nc12 [Compound 246] |
| A (EC1.5<1.0 uM) | A (Fold activation >200%) | O=C(Nc1nccs1)c1cccc2[nH]c(-c3ccc(N4CCOCC4)nc3)nc12 [Compound 247, 2-(6-morpholinopyridin-3-yl)-N-(thiazol-2-yl)-1H-benzo[d]imidazole-4-carboxamide] |
| B (EC1.5 1-25 uM) | A (Fold activation >200%) | O=C(Nc1ccccn1)c1cccc2[nH]c(-c3ccccc3C(F)(F)F)nc12 [Compound 248] |
| B (EC1.5 1-25 uM) | A (Fold activation >200%) | O=C(Nc1nccs1)c1cccc2[nH]c(-c3ccco3)nc12 [Compound 249] |
| B (EC1.5 1-25 uM) | A (Fold activation >200%) | O=C(Nc1nccs1)c1cccc2[nH]c(-c3cccnc3N3CCOCC3)nc12 [Compound 250, 2-(2-morpholinopyridin-3-yl)-N-(thiazol-2-yl)-1H-benzo[d]imidazole-4-carboxamide] |
| A (EC1.5<1.0 uM) | A (Fold activation >200%) | O=C(Nc1nccs1)c1cccc2[nH]c(-c3ccc(N4CCNCC4)nc3)nc12 [Compound 251, 2-(6-(piperazin-1-yl)pyridin-3-yl)-N-(thiazol-2-yl)-1H-benzo[d]imidazole-4-carboxamide hydrochloride] |

| EC1.5 | Fold Act. (percent maximum fold activation) | Structure (SMILES) |
| --- | --- | --- |
| B (EC1.5 1-25 uM) | A (Fold activation >200%) | O=C(NCc1ccccn1)c1cccc2[nH]c(-c3cccc(C(F)(F)F)c3)nc12 [Compound 252] |
| A (EC1.5<1.0 uM) | A (Fold activation >200%) | Cn1nc(-c2ccccc2)cc1-c1nc2c(C(=O)Nc3nccs3)cccc2[nH]1 [Compound 253] |
| A (EC1.5<1.0 uM) | A (Fold activation >200%) | O=C(Nc1nccs1)c1cccc2[nH]c(-c3ccnn3-c3ccccc3)nc12 [Compound 254] |
| B (EC1.5 1-25 uM) | A (Fold activation >200%) | O=C(Nc1nccs1)c1cccc2[nH]c(-c3ccccc3-c3ccccc3)nc12 [Compound 255] |
| B (EC1.5 1-25 uM) | A (Fold activation >200%) | O=C(Nc1nccs1)c1cccc2[nH]c(-c3ccccc3N3CCOCC3)nc12 [Compound 256] |
| B (EC1.5 1-25 uM) | A (Fold activation >200%) | O=C(Nc1nccs1)c1cccc2[nH]c(-c3cccc(Cl)c3F)nc12 [Compound 257] |
| B (EC1.5 1-25 uM) | A (Fold activation >200%) | O=C(Nc1nccs1)c1cccc2[nH]c(-c3cc(Cl)ccc3C(F)(F)F)nc12 [Compound 258] |
| B (EC1.5 1-25 uM) | A (Fold activation >200%) | CN(C)CCNc1ccc(-c2nc3c(C(=O)Nc4nccs4)cccc3[nH]2)cn1 [Compound 259] |
| B (EC1.5 1-25 uM) | B (Fold Activation <200%) | Cc1cnc(NC(=O)c2cccc3[nH]c(-c4cccc(C(F)(F)F)c4)nc23)s1 [Compound 260] |
| C (EC1.5 >25 uM) | B (Fold Activation <200%) | Cc1noc(C)c1NC(=O)c1cccc2[nH]c(-c3cccc(C(F)(F)F)c3)nc12 [Compound 261] |
| A (EC1.5<1.0 uM) | A (Fold activation >200%) | O=C(Nc1ccncc1)c1cccc2[nH]c(-c3ccccc3C(F)(F)F)nc12 [Compound 262] |
| A (EC1.5<1.0 uM) | A (Fold activation >200%) | O=C(Nc1nccs1)c1cccc2[nH]c(-c3ccc(F)cc3C(F)(F)F)nc12 [Compound 263] |
| B (EC1.5 1-25 uM) | A (Fold activation >200%) | O=C(Nc1nccs1)c1cccc2[nH]c(-c3c(F)cccc3C(F)(F)F)nc12 [Compound 264] |
| B (EC1.5 1-25 uM) | A (Fold activation >200%) | O=C(Nc1nccs1)c1cccc2[nH]c(-c3c(F)cccc3F)nc12 [Compound 265] |
| B (EC1.5 1-25 uM) | A (Fold activation >200%) | O=C(Nc1nccs1)c1cccc2[nH]c(-c3c(F)cccc3Cl)nc12 [Compound 266] |
| B (EC1.5 1-25 uM) | A (Fold activation >200%) | O=C(Nc1nccs1)c1cccc2[nH]c(-c3ccccc3CN3CCOCC3)nc12 [Compound 267] |

— patent US8846947B2, “Benzimidazoles and related analogs as sirtuin modulators” (GlaxoSmithKline LLC, priority 2008, dated 2014)
